Source: US20120148690A1, “SKIN BARRIER FUNCTION RECOVERY ACCELERATOR” (SHISEIDO COMPANY, LTD., priority 2010, published 2012)
Each block holds one molecule with its values, some of them ahead of it.

Tests used:
TRPA1 [1] = molecular target: T1, TRPA1 (Mus musculus, UniProt Q8BLA8); experiment: Electron microscopy of lamellar body secretion between stratum corneum and stratum granulosum; format: in vivo, hairless mice; details: pretreatment with antagonist; short exposure to low temperature; FIG. 4c
T1 construct: TRPA1 in mouse epidermis was determined to positively immunostained; from tissue; host or cells: skin (epidermis) of living male HR-1 hairless mice

TRPA1 [2] = molecular target: T1, TRPA1; experiment: Barrier recovery after tape stripping, measured by transepidermal water loss (TEWL); format: in vivo, hairless mice; details: for Barrier recovery (TEWL recovery rate): local application of 100 μl of 0.5 mM agonist solution immediately after tape stripping
Method: Male hairless mice age 7 to 10 weeks (HR-1, Hoshino Laboratory Animals, Inc., Japan) were used in all experiments. Measurement of skin barrier function, barrier destruction and application of test samples were carried out while the animals were anesthetized with Nembutal.
Permeability barrier function was evaluated on the basis of measurement results for transepidermal water loss (TEWL) obtained using an electrical moisture analyzer (Meeco Inc.) in the manner previously described (Denda, et al., J. Invest. Dermatol., 111, 858-863 (1998): Non-Patent Document 10). In the barrier recovery experiment, treatment was carried out on the animals consisting of repeatedly carrying out tape stripping on skin on both sides of the abdomen until TEWL reached 7 to 10 mg/cm^2/hr. The effects of each treatment were investigated by measuring at two locations on the sides of the abdomen using four mice. Next, TEWL values at the same sites were measured at 1, 3, 6 and 24 hours after barrier destruction. In order to avoid the effects of circadian rhythm, the speed of barrier recovery was investigated immediately after destroying the skin barrier between the hours of 7:00 AM and 8:00 AM. The results for barrier recovery were expressed in terms of recovery rate (%). This is because the degree of barrier destruction varies from day to day. Recovery rate was calculated for each mouse using the following formula:
[(TEWL immediately after barrier destruction−TEWL at indicated time)/(TEWL immediately after barrier destruction−TEWL basal value)]×100%
The effects of TRPA1 agonist on undamaged skin of hairless mice were first evaluated. The skin permeability barrier was destroyed by tape stripping followed immediately thereafter by application of 100 μl of agonist solution. […] Next, the surface of the skin on one side of the abdomen was chilled (10 to 15° C.) for 1 minute using a cold insulator. The other side of the abdomen was maintained at 35 to 36° C. using a heating pad. The temperatures of both sides of the abdomen were monitored with a thermometer (Data Logger Thermometer MT-309, Mother Tool Co., Ltd.).

TRPV4 = TRPV4 (Homo sapiens, UniProt Q9HBA0); details: common TRP inhibitor; TRPV4 activated by heat (36 to 40° C.) or agonist; cited from earlier work
TRPV1 = TRPV1 (Homo sapiens, UniProt Q8NER1); details: cited from earlier work
Sequence of TRPV1 (Q8NER1 whole entry, species assumed): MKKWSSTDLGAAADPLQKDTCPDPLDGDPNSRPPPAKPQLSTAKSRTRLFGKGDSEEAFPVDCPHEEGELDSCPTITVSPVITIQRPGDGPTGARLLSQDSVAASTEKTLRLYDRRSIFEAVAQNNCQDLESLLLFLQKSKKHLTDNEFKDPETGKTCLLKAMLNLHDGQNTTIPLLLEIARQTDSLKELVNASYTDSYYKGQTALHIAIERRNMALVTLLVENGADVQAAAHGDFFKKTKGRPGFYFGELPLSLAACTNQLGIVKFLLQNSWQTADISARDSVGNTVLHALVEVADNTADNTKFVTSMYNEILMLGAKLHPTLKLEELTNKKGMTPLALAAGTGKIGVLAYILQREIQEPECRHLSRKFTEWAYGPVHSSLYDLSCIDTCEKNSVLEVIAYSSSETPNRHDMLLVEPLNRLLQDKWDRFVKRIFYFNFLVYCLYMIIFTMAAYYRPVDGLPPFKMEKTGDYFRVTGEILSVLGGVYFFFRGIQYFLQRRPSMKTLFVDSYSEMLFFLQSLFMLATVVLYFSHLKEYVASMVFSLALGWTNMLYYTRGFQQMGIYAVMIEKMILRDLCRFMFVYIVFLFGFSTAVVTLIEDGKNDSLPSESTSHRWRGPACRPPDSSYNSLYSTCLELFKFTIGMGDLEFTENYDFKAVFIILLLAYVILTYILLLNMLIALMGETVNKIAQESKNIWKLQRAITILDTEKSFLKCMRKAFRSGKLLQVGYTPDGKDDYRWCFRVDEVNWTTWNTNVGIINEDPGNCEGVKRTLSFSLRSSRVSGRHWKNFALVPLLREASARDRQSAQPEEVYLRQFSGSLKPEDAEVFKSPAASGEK

T1 sequence (Q8BLA8 whole entry): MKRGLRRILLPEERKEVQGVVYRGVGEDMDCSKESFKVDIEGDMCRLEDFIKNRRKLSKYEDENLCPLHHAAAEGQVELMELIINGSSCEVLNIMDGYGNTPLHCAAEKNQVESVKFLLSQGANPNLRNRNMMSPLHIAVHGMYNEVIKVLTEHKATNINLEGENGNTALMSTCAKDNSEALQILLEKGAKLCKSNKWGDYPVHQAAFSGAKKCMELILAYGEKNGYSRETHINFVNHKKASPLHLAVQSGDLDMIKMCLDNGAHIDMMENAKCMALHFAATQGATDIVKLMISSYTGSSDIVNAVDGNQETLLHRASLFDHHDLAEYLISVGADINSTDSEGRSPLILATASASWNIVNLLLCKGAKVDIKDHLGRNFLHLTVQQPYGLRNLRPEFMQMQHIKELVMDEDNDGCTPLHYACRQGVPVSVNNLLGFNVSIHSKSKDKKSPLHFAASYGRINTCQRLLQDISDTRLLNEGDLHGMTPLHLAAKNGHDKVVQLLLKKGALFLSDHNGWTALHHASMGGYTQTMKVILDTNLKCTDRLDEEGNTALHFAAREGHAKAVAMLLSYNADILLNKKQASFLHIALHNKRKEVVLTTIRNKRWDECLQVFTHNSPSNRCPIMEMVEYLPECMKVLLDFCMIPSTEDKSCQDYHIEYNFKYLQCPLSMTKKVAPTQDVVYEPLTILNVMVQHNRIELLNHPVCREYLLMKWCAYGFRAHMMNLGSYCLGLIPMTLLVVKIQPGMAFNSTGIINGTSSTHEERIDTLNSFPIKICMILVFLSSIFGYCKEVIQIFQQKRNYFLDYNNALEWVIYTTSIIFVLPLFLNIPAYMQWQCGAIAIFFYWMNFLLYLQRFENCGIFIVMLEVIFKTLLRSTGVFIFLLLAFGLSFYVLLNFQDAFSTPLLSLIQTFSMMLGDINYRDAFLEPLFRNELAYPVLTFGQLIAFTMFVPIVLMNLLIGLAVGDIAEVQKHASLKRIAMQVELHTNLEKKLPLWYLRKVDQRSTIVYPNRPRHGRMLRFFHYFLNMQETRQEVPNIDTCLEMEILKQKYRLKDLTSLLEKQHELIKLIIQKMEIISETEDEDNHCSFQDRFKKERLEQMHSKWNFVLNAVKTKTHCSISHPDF
Sequence of TRPV4 (Q9HBA0 whole entry, species assumed): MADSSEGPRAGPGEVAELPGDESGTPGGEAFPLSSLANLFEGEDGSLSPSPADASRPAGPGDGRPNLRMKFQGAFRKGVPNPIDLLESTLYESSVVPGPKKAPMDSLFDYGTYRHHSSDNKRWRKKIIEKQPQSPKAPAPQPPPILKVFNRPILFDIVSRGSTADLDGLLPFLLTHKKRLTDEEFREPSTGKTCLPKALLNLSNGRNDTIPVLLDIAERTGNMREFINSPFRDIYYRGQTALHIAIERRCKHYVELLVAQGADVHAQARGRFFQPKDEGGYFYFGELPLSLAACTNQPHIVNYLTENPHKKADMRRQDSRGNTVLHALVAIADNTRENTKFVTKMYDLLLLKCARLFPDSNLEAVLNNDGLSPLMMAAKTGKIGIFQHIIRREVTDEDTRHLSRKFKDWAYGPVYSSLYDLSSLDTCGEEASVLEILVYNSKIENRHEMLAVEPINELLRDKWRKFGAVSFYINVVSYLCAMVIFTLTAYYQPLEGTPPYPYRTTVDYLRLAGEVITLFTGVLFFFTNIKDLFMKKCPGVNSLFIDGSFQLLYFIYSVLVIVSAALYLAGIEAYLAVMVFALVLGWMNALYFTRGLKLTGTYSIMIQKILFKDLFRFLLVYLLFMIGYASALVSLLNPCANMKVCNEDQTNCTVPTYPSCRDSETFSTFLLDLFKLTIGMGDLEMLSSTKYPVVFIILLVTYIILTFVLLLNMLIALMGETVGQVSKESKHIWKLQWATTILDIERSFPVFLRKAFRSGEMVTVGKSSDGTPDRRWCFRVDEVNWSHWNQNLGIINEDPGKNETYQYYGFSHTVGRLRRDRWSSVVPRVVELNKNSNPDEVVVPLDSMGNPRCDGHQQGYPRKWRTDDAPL

Effect on low-temperature-accelerated secretion of lamellar bodies (TRPA1 [1]): inhibited | Effect on barrier recovery acceleration by allyl isothiocyanate or cinnamaldehyde (TRPA1 [2]; pretreatment with 50 μM antagonist, FIG. 1): inhibited | Effect on barrier recovery acceleration by 1 minute of cooling (10 to 15° C.) (TRPA1 [2]; pretreatment with antagonist, FIG. 2): inhibited
SMILES: CC(C)c1ccc(NC(=O)Cn2cnc3c2c(=O)n(C)c(=O)n3C)cc1 [HC030031, 2-(1,3-dimethyl-2,6-dioxo-1,2,3,6-tetrahydro-7H-purin-7-yl)-N-(4-isopropylphenyl)acetoamide]

SMILES: N.N.N.N.N.N.N.N.N.N.N.N.N.N.[Cl-].[Cl-].[Cl-].[Cl-].[Cl-].[Cl-].[O-2].[O-2].[Ru+3].[Ru+3].[Ru+4] [ruthenium red]
Effect on barrier repair acceleration by TRPV4 activation (TRPV4): inhibited

SMILES: COc1cc(CNC(=O)CCCC/C=C/C(C)C)ccc1O [capsaicin]
Repair of the skin barrier (TRPV1; TRPV1 activated after destroying the skin barrier): delayed

SMILES: O=CC=Cc1ccccc1 [cinnamaldehyde]
Barrier recovery (TEWL recovery rate) (TRPA1 [2]; FIG. 1): accelerated

SMILES: C=CCN=C=S [allyl isothiocyanate]
Barrier recovery (TEWL recovery rate) (TRPA1 [2]; FIG. 1): accelerated

SMILES: Oc1cc2c(cc1O)CN(C(=S)NCCc1ccc(Cl)cc1)CCC2 [capsazepine]
Effect on delay of barrier repair caused by TRPV1 activation (TRPV1; TRPV1 antagonist): inhibited
